What was measured:
[1] = tested on: endogenous FAP in plasma; assay: PD study in hamsters: plasma FAP activity and endogenous FGF21; assay type: in vivo, Golden Syrian hamsters; conditions: hamster, 1 mg/kg IV or 10 mg/kg PO
Procedure: To assess the effect of FAP inhibition by an exemplary compound over the cleavage of endogenously produced FGF21, in vivo PK/PD studies were conducted in male Golden Syrian hamsters following single intravenous and oral administration of an exemplary compound.
Hamsters from Group 1 received an intravenous bolus via jugular vein of 1 mg/kg of compound 13 (an exemplary compound). On the other hand, hamsters from Group 2 received an intragastric bolus of 10 mg/kg of compound 13 (an exemplary compound) using feeding needles.
Plasma samples were collected at 5, 10, 15, 30, 60, 120, 240, 360, 480 and 1440 minutes post-dose in both IV and PO groups. Hamsters from group 3 were not dosed and were used to collect samples of zero time point and baseline levels of FAP activity and endogenous FGF21.
Blood aliquots (100-150 μL) were collected from jugular vein catheterized hamsters in tubes coated with EDTA-K2, mixed gently, then kept on ice and centrifuged at 2,500×g for 15 minutes at 4° C., within 1 hour of collection. […]
Levels of endogenous hamster FGF21 in the plasma samples were quantified by using an ELISA kit (Cat. No. #EZRMFGF21-26K, Millipore) according to the manufacturer's instructions. […] Plasma samples of non-dosed animals were analyzed as a pool of plasma. […]

[2] = molecular target: T1, plasma FAP activity (Rattus norvegicus, UniProt A0A9K3Y732); assay: rhFGF21 administration in conjunction with FAP inhibition in vivo; design: species or system Sprague Dawley rats
T1 construct: from tissue; host or cells: rat plasma after oral dosing
T1 sequence (A0A9K3Y732 1-761): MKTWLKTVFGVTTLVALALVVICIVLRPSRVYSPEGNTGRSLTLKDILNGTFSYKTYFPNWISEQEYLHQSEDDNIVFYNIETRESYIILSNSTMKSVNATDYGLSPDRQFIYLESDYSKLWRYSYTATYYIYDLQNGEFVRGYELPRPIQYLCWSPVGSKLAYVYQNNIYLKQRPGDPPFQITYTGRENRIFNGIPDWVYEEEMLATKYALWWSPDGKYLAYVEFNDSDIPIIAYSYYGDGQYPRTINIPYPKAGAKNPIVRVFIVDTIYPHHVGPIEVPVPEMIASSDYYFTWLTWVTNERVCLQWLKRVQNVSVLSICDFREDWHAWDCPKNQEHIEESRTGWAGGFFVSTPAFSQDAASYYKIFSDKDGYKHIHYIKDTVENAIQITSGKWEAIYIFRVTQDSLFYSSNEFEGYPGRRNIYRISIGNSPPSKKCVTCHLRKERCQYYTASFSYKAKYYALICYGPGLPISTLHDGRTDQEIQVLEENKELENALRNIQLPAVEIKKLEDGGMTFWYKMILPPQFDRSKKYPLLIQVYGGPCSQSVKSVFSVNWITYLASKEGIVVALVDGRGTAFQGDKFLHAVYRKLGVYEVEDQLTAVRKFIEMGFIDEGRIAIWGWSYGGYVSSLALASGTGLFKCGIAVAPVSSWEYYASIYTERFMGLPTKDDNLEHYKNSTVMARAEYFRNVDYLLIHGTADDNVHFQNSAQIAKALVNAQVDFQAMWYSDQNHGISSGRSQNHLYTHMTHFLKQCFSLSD
From the text: To determine if exemplary compounds of the invention can contribute to extend the half-life of hFGF21 in vivo, rats were orally dosed with vehicle or compound 13 (an exemplary compound) followed by sub-therapeutic dose of rhFGF21.
Male Sprague Dawley rats, approximately 7-8 weeks old (˜250 g), were obtained from the vivarium of Universidad Católica de Chile (Santiago, Chile). Animals were acclimated for a minimum period of 4 days upon arrival at the testing facility. At the day of study, two rats were anesthetized using sevoflurane and subjected to surgical implantation of catheters in carotid artery and jugular vein. Catheter plugs were fixed to the external ends of the catheters and kept patent using an anti-coagulant heparinized saline solution containing 25 U/mL Heparin (Fresenius Kabi, Laboratorio Sanderson) in 0.9% NaCl Apiroflex (Fresenius Kabi, Laboratorio Sanderson). After surgical recovery, rats were weighed and identified by marking the tail with numbers using a non-toxic permanent marker for designation of treatments described in Table 9.
Compound 13 (an exemplary compound) was formulated at 5 mg/ml in vehicle PEG200/dH2O (50/50, v/v) for oral administration and rhFGF21 was formulated in 0.9% NaCl Apiroflex at 100 μg/mL. […]

How did the “FAP activity in plasma compared with baseline levels” value [1] turn out when `N#C[C@@H]1CC(F)(F)CN1C(=O)CNC(=O)c1ccncc1-c1ccccc1` [Compound 13, (S)—N-(2-(2-cyano-4,4-difluoropyrrolidin-1-yl)-2-oxoethyl)-3-phenylisonicotinamide] was run?
Its value is “diminished quickly”.

What about the “levels of total endogenous FGF21 in plasma” value ([1]; ELISA) of the same compound?
Its value is “increased in the most of hamsters”.

What about the “amount of rhFGF21 detected through time in the plasma” value ([2]; 50 mg/kg PO pre-treatment, then rhFGF21 90 μg/Kg IV) of the same compound?
The value was “increased”.

And the “plasma FAP activity” value ([2]; oral single dose of 50 mg/kg)?
Its value is “potently suppressed”.

Source: US11780821B2, “Inhibitors of fibroblast activation protein” (Praxis Biotech LLC, priority 2017, dated 2023)
